Experimental data reported in ChEMBL document CHEMBL1155618, “Junceellolides E-G, new briarane diterpenes from the West Pacific Ocean gorgonian Junceella fragilis” (J Nat Prod, 2000).
Active and inactive are the calls of the source.

Legend:
Format in all cases: functional, cell-based
P388 = test: Cytotoxicity against mouse P388 cells
A549 = test: Cytotoxicity against human A549 cells
HT-29 = test: Cytotoxicity against human HT29 cells

Measured: Activity

CC(=O)O[C@@H]1[C@@H]2[C@@](C)([C@H](O)CC/C(C)=C\[C@@H]3OC(=O)[C@H](C)[C@]31O)[C@@H](O)CC[C@]2(C)O
inactive: all assays above

C=C1CC[C@H](OC(C)=O)[C@@]2(C)[C@H]1[C@@H](OC(C)=O)[C@@]1(O)[C@H](/C=C(/C)CC[C@H]2OC(=O)CC)OC(=O)[C@@H]1C
inactive: all assays above

CCC(=O)O[C@@H]1CC/C(C)=C\[C@@H]2OC(=O)[C@H](C)[C@@]2(O)[C@H](OC(C)=O)[C@H]2[C@]3(CC[C@H](OC(C)=O)[C@]12C)CO3
inactive: all assays above

C=C1CC[C@H](OC(C)=O)[C@@]2(C)[C@H]1[C@@H](OC(C)=O)[C@@]1(O)[C@H](/C=C(/C)CC[C@H]2OC(C)=O)OC(=O)[C@@H]1C
inactive: all assays above
